Test results from patent US20110070320A1, “BIODEGRADABLE THERMORESPONSIVE 3-ARM POLYETHYLENE GLYCOL POLY(LACTIDE-CO-GLYCOLIDE) COPOLYMER FOR GINSENG ADMINISTRATION” (priority 2009, published 2011).

How the values were obtained:
Type in all cases: physicochemical
[1] = Doxorubicin release from copolymer aqueous gel; conditions: 37° C.; 20% (w/w) copolymer gel; FIG. 3
Procedure: Doxorubicin was used as a hydrophilic drug in a drug release study using the copolymer of EXAMPLE 1 in a 20% (w/w) aqueous solution. The drug (4 mg) was dissolved in 2 ml of the polymer solution. The drug/polymer solution was filtered through a 0.2 μm syringe and an aliquot of 0.5 ml of the solution was added to each sample vial. The triplet samples were placed in a water bath preheated and stabilized at 37° C. After 10 min a buffer solution of 1×PBS (1 ml, preheated at 37° C.) was added to each sample vial containing a gelled drug/polymer solution. The drug contents in the release media, which were removed and replaced with fresh PBS solutions at each sampling point, were determined at 1, 3, 6 h and then daily for 8 days by a spectrophotometer (SpecraMax M2 by Molecular Devices).

[2] = Paclitaxel release from copolymer aqueous gel; conditions: 37° C.; 20% (w/w) copolymer gel; FIG. 2
Procedure: Paclitaxel was used as a hydrophobic drug in a drug release study using the copolymer of EXAMPLE 1 in a 20% (w/w) aqueous solution. The drug (4 mg) was added to a 4 ml vial containing 0.2 ml of the polymer solution. At 4° C. the sample vial was sonicated for 15 min and vortexed for 16 h and sonicated for 15 min again to give a slightly cloudy suspension. After filtered through a 0.2 μm syringe filter an aliquot (0.2 ml) of the solution was added to each sample vial. The triplet samples were placed in a water bath preheated and stabilized at 37° C. After 10 min a buffer solution of 1×PBS (3 ml, preheated at 37° C.) containing 2.4% (w/w) of Tween 80 and 4% (w/w) of Cremophor EL was added to each sample vial containing a gelled drug/polymer solution. The drug release was determined by taking an aliquot of the medium from each sample vial at 1.5 h, 6 h and then daily for 10 days and analyzing the drug content of the sample by HPLC (mobile phase 1 ml/min 50/50 acetonitrile/deioned water, wavelength 227 nm, running time 15 min).

[3] = Enhanced drug solubility in polymer gel (HPLC); conditions: aqueous solution of Example 1 polymer (20% w/w); filtered 0.2 μm
Procedure: In a 4 ml vial the polymer from EXAMPLE 1 (200 mg) and paclitaxel (2 mg) were dissolved in acetone (1·ml). The mixture was evaporated under vacuum for 16 h. Deionized water (0.8 ml) was added and the mixture was stirred at 4° C. for 24 h. The resulting solution was filtered through a 0.2 μm syringe filter to give a clear solution. An aliquot of the solution was diluted 100-fold with acetonitrile and analyzed for paclitaxel by HPLC (mobile phase: water/acetonitrile 1:1, 1 ml/min, injection volume: 20 μl, running time: 15 min, column: Waters Symmetry 300™ 4.6×250 mm, C18 5 μm, detector: Waters 2996).

SMILES | duration of controlled drug release from copolymer aqueous gel [1] [days] | duration of controlled drug release from copolymer aqueous gel [2] [days] | paclitaxel content in the aqueous solution [3] [mg/mL]
COc1cccc2c1C(=O)c1c(O)c3c(c(O)c1C2=O)C[C@@](O)(C(=O)CO)C[C@@H]3O[C@H]1C[C@H](N)[C@H](O)[C@H](C)O1 [doxorubicin, Doxorubicin] | 8 | – | –
CC(=O)O[C@H]1C(=O)[C@@]2(C)[C@H]([C@H](OC(=O)c3ccccc3)[C@]3(O)C[C@H](OC(=O)[C@H](O)[C@@H](NC(=O)c4ccccc4)c4ccccc4)C(C)=C1C3(C)C)[C@]1(OC(C)=O)CO[C@@H]1C[C@@H]2O [paclitaxel, Paclitaxel] | – | 10 | 6.4
